US8865672B2, “Prevention of tissue ischemia and related methods” (The United States of America, as represented by the …, priority 2006, dated 2014)
Values belong to the molecule of their own block, whether it stands above or below them. Peptide text beside a SMILES is read from it.

Key:
human platelets [1] = assay: Thrombin-induced human platelet aggregation; type: cell-based; details: DEA/NO 10 μM
Description: Platelets were pelleted from platelet-rich plasma (PRP) by centrifugation for 10 minutes at 200 g. They were then washed with acid citrate dextrose (ACD) (85 mM citric acid, 65 mM sodium citrate, 100 mM glucose, pH 5.1) at a ratio of 1:7 at room temperature. After pelleting the platelets again and removing the supernatant, the platelets were resuspended in 5 mL of Tyrode's buffer (137 mM NaCl, 3 mM KCl, 12 mM NaHCO3, 0.3 mM NaHPO4, 2 mM CaCl2, 1 mM MgCl2, 5.5 mM glucose, 5 mM HEPES, 3.5 mg/mL BSA, pH 7.4). The final platelet number was adjusted to […] in 500 μl/cuvette of Tyrode's buffer.
Aggregation of human platelets under high shear conditions was assessed using a standard optical aggregometer (Lumi-Dual Aggregometer, Chrono-Log Corp., Havertown, Pa.) at 37° C. and 1200 rpm in a volume of 500 μl buffer with a final platelet concentration of 2×10^5 platelets/μl over a 5 minute interval. Pre-incubation with TSP1 and TSP1-based agents was for 15 minutes prior to addition of thrombin and/or the rapidly releasing nitric oxide donor DEA/NO. In some experiments platelets were pre-incubated with the Rap1 inhibitor GGTI-298 (10 μM) (Calbiochem, La Jolla, Calif.) for 30 minutes prior to initiating aggregation. In other high shear aggregation experiments murine platelets were prepared as above with the following modifications. Mouse blood was collected by retro-orbital bleeding of anesthetized mice using heparinized tubes. PRP was prepared and then diluted with 4 vol. of Tyrodes containing 5 mM EDTA to prevent activation. After collection by centrifugation, platelets were resuspended in 2× initial PRP volume and held at room temperature for less than 1 hour before use. Aggregation conditions consisted of 250 μL of washed platelets stirred at 1200 rpm in a Chronolog Optical aggregometer at 37° C. DEA/NO (10 μM) was added 30 seconds prior to activation and 8-BrcGMP added 15 min prior to activation with 0.2 U/ml human thrombin. Data was collected using Chronolog “Aggrolink” software. Platelet aggregation under static conditions was assessed using a spectrophotometer (Beckman DU 640, Beckman Coulter, Fullerton, Calif.) and determined as a change in absorbance at 400 nm with continuous observation over a five minute interval. The cuvette was inverted once every 60 seconds. Pre-incubation with TSP1 and TSP1-based agents was for 15 minutes prior to addition of thrombin and/or DEA/NO to minimize the formation of thrombin-serpinthrombospondin complexes (Chang & Detwiler, Arch Biochem Biophys. 299:100-104, 1992), which interfere with thrombin-platelet interactions.
Fresh human platelets were suspended in Tyrode's buffer and under low shear conditions thrombin-stimulated aggregation measured as described. Platelets were then treated with peptide C6d (1 μM)±NO (10 μM DEA/NO) and thrombin and aggregation measure.

HUVEC = assay: NO-stimulated HUVEC adhesion on type I collagen; type: cell-based, human; details: DEA/NO 10 μM, 1 h
Description: Cell adhesion was carried out in 96-well culture plates. After pre-coating wells with type I collagen (3 μg/ml in DPBS) harvested cells were plated at a density of 1×10^4 cells/well in medium plus 0.1% BSA and treatment agents and incubated in 5% CO2 for 1 h. Wells were washed with PBS and cells fixed with 1% glutaraldehyde for 10 min., washed and stained with 1% crystal violet for 20 min. Excess stain was rinsed away, adherent cells treated with 10% acetic acid, and plates read at 570 nm.

human platelets [2] = assay: cGMP in human platelets; type: cell-based; details: washed human platelets in Tyrode's buffer
Description: Fresh human platelets at 2×10^5 platelets/μl in Tyrode's buffer or PRP were pre-incubated with the indicated agents for 15 minutes and then challenged with DEA/NO for the indicated time interval at room temperature and total cGMP determined via immunoassay (Amersham, GE Healthcare, Buckinghamshire, UK). Murine WT and TSP1-null platelets were treated with DEA/NO and cGMP flux measured.

NO/cGMP signaling = assay: cGMP signaling (NO-stimulated cGMP, immunoassay); type: cell-based, human; details: concentration for 50% inhibition of effect
Description: Vascular cells (endothelial) or HT-1080 cells (10^4 cells/well) grown overnight in 12-well culture in SM-GM containing 2% FCS or RPMI+10% FCS respectively and then weaned off serum over 48 h before treatment with NO donors and other agents in serum/additive free medium+0.1% BSA. Intracellular cGMP levels were determined using an enzyme immunoassay (Amersham, GE Health Care, UK). In other experiments fresh washed human platelets were incubated in Tyrode's buffer and the indicated treatment agents±NO and cGMP determined.

[3] = system: blood pressure and pulse in mice; assay: Blood pressure and pulse measurements (tail cuff); type: in vivo, mouse
Description: Mean systolic, diastolic and arterial blood pressure (BP) and mean pulse was measured in age and sex matched mice using a computerized tail cuff system (Hatteras Systems, MC4000 Blood Pressure Analysis System, Cary, N.C.). The mice were allowed to acclimate to the apparatus for 5 min prior to the start of measurement. Each animal underwent a cycle of 10 preliminary and 50 experimental pressures measurements for data acquisition and data calculation. Animals were acclimated to the measuring system and protocol for 4 days with treatment with data acquisition being performed on the 5th day. Pressures recordings were performed at the same time each day. Data was accepted if the mouse had valid readings for at least 20 consecutive pulse beats. All studies were performed at the same hour each day.
Respirations were monitored continuously monitored by direct observation of the animal. Body core temperature was measured via rectal probe. Temperature control was performed using a water-circulating warming surface and heating lamp. Following a 15 minute period of stabilization mean systolic, diastolic and arterial blood pressure and mean pulse measurements were determined.

Molecule: FIRGGMYEGKK [compound 604, control peptide for 7N3]
NO delay of thrombin-induced platelet aggregation (human platelets [1]; high shear, thrombin 0.2 U/ml): no effect

Molecule: RFYGGMWK [p4N1G, control peptide, VVM substituted by GGM]
NO-stimulated endothelial cell adhesion on type I collagen (HUVEC): did not significantly inhibit

Molecule: fibrinogen
NO delay of thrombin-induced platelet aggregation (human platelets [1]; high shear, thrombin 0.2 U/ml): no significant effect

Molecule: KRFYVVMWKK [4N1K, derivative of the 4N1-1 peptide with terminal lysines]
NO delay of thrombin-induced platelet aggregation (human platelets [1]; static / low shear conditions): prevented an NO-stimulated delay in platelet aggregation

Molecule: fibronectin [reference compound]
NO delay of thrombin-induced platelet aggregation (human platelets [1]; high shear, thrombin 0.2 U/ml): no significant effect
NO stimulated cGMP in platelets (human platelets [2]): no inhibition

IC50 (NO/cGMP signaling): > 10 µM
Molecule: CC[C@H](C)[C@H](N)C(=O)NCC(=O)N[C@@H](Cc1c[nH]c2ccccc12)C(=O)N[C@@H](CCCCN)C(=O)N[C@@H](CC(N)=O)C(=O)N[C@@H](Cc1ccccc1)C(=O)N[C@H](C(=O)N[C@@H](C)C(=O)N[C@@H](Cc1ccc(O)cc1)C(=O)N[C@@H](CCCNC(=N)N)C(=O)O)[C@@H](C)O [compound 37297, IGWKNFTAYR] (H-IGWKNFTAYR-OH)

IC50 (NO/cGMP signaling): ~1 µM
Molecule: CC(=O)N[C@@H](Cc1c[nH]c2ccccc12)C(=O)N[C@@H](CCCCN)C(=O)N[C@@H](CC(=O)O)C(=O)N[C@@H](Cc1ccccc1)C(=O)N[C@H](C(=O)N[C@@H](C)C(=O)N[C@@H](Cc1ccc(O)cc1)C(=O)N[C@@H](CCCNC(=N)N)C(=O)O)[C@@H](C)O [compound 37300, Ac-WKDFTAYR] (Ac-WKDFTAYR-OH)

cGMP signaling IC50 (NO/cGMP signaling): inactive
Molecule: IGWKDFTAYK [compound 37554]

IC50 (NO/cGMP signaling): ~1 µM
Molecule: C[C@H](N)C(=O)NCC(=O)N[C@@H](Cc1c[nH]c2ccccc12)C(=O)N[C@@H](CCCCN)C(=O)N[C@@H](CC(=O)O)C(=O)N[C@@H](Cc1ccccc1)C(=O)N[C@H](C(=O)N[C@@H](C)C(=O)N[C@@H](Cc1ccc(O)cc1)C(=O)N[C@@H](CCCNC(=N)N)C(=O)O)[C@@H](C)O [compound 37416, AGWKDFTAYR] (H-AGWKDFTAYR-OH)

cGMP signaling IC50 (NO/cGMP signaling): inactive
Molecule: IGWKAFTAYR [compound 37296]

IC50 (NO/cGMP signaling): ~10 µM
Molecule: CC[C@H](C)[C@H](N)C(=O)NCC(=O)N[C@@H](Cc1c[nH]c2ccccc12)C(=O)N[C@@H](CCCCN)C(=O)N[C@@H](CC(=O)O)C(=O)N[C@@H](Cc1ccccc1)C(=O)N[C@H](C(=O)N[C@@H](C)C(=O)N[C@@H](C)C(=O)N[C@@H](CCCNC(=N)N)C(=O)O)[C@@H](C)O [compound 37555, IGWKDFTAAR] (H-IGWKDFTAAR-OH)

IC50 (NO/cGMP signaling): > 10 µM
Molecule: CC[C@H](C)[C@H](N)C(=O)NCC(=O)N[C@@H](Cc1c[nH]c2ccccc12)C(=O)N[C@@H](CCCCN)C(=O)N[C@@H](CC(=O)O)C(=O)N[C@@H](Cc1ccccc1)C(=O)N[C@@H](C)C(=O)N[C@@H](C)C(=O)N[C@@H](Cc1ccc(O)cc1)C(=O)N[C@@H](CCCNC(=N)N)C(=O)O [compound 37299, IGWKDFAAYR] (H-IGWKDFAAYR-OH)

IC50 (NO/cGMP signaling): > 10 µM
Molecule: CC[C@H](C)[C@H](N)C(=O)NCC(=O)N[C@@H](Cc1c[nH]c2ccccc12)C(=O)N[C@@H](C)C(=O)N[C@@H](CC(=O)O)C(=O)N[C@@H](Cc1ccccc1)C(=O)N[C@H](C(=O)N[C@@H](C)C(=O)N[C@@H](Cc1ccc(O)cc1)C(=O)N[C@@H](CCCNC(=N)N)C(=O)O)[C@@H](C)O [compound 37413, IGWADFTAYR] (H-IGWADFTAYR-OH)

Molecule: CCCN(CCCN)/[N+]([O-])=N/O [PAPA/NO]
mean arterial blood pressure response ([3]; CD47 null animals, i.p.): greatest drop in mean arterial blood pressure
blood pressure response ([3]; TSP1 null versus wild type, i.p.): drop in mean arterial pressure always greater in the absence of TSP1
mean pulse ([3]; after i.p. challenge): only modestly increased

IC50 (NO/cGMP signaling): ~0.1 µM
Molecule: CC[C@H](C)[C@H](N)C(=O)NCC(=O)N[C@@H](Cc1ccc(O)cc1)C(=O)N[C@@H](CCCCN)C(=O)N[C@@H](CC(=O)O)C(=O)N[C@@H](Cc1ccccc1)C(=O)N[C@H](C(=O)N[C@@H](C)C(=O)N[C@@H](Cc1ccc(O)cc1)C(=O)N[C@@H](CCCNC(=N)N)C(=O)O)[C@@H](C)O [compound 37417, IGYKDFTAYR] (H-IGYKDFTAYR-OH)

Molecule: VTAGGGVQKRSRL [p906]
NO-stimulated endothelial cell adhesion on type I collagen (HUVEC): inhibited NO-stimulated endothelial cell adhesion
NO delay of thrombin-induced platelet aggregation (human platelets [1]; static / low shear conditions): reversed an NO-stimulated delay of platelet aggregation

IC50 (NO/cGMP signaling): > 10 µM
Molecule: CC[C@H](C)[C@H](N)C(=O)NCC(=O)N[C@@H](Cc1c[nH]c2ccccc12)C(=O)N[C@@H](Cc1c[nH]cn1)C(=O)N[C@@H](CC(=O)O)C(=O)N[C@@H](Cc1ccccc1)C(=O)N[C@H](C(=O)N[C@@H](C)C(=O)N[C@@H](Cc1ccc(O)cc1)C(=O)N[C@@H](CCCNC(=N)N)C(=O)O)[C@@H](C)O [compound 37414, IGWHDFTAYR] (H-IGWHDFTAYR-OH)

Molecule: KRFKQDGGWSHWSPWSS [p246]
NO delay of thrombin-induced platelet aggregation (human platelets [1]; static / low shear conditions): inactive

IC50 (NO/cGMP signaling): 1 µM
Molecule: CC[C@H](C)[C@H](N)C(=O)NCC(=O)N[C@@H](Cc1c[nH]c2ccccc12)C(=O)N[C@@H](CCCCN)C(=O)N[C@@H](CCC(=O)O)C(=O)N[C@@H](Cc1ccccc1)C(=O)N[C@H](C(=O)N[C@@H](C)C(=O)N[C@@H](Cc1ccc(O)cc1)C(=O)N[C@@H](CCCNC(=N)N)C(=O)O)[C@@H](C)O [compound 37415, IGWKEFTAYR] (H-IGWKEFTAYR-OH)

Molecule: FIRVAIYEGKK [compound 605, control peptide for 7N3]
NO delay of thrombin-induced platelet aggregation (human platelets [1]; high shear, thrombin 0.2 U/ml): no effect

Molecule: FC(F)OC(Cl)C(F)(F)F (stereo not shown) [isoflurane, Isoflurane]
blood pressure under general anesthesia ([3]; TSP1-null animals): significant decreases in systolic, diastolic and mean arterial blood pressures
blood pressure under general anesthesia ([3]; wild type mice): very modest overall drop in mean arterial pressure

Molecule: E123CaG-1: recombinant C-terminal domains of TSP1
NO delay of thrombin-induced platelet aggregation (human platelets [1]; high shear, thrombin 0.2 U/ml): blocked the ability of NO to delay thrombin-induced aggregation
NO delay of thrombin-induced platelet aggregation (human platelets [1]; static / low shear conditions): reversed the NO delay of aggregation under static conditions
NO stimulated cGMP in platelets (human platelets [2]): inhibited NO stimulated cGMP flux

Molecule: RFYVVMWK [4N1-1]
NO-stimulated endothelial cell adhesion on type I collagen (HUVEC): inhibited NO-stimulated endothelial cell adhesion
NO delay of thrombin-induced platelet aggregation (human platelets [1]; static / low shear conditions): prevented an NO-stimulated delay in platelet aggregation
